From ChEMBL document CHEMBL1201862, “PubChem BioAssay data set” (2004)
The source made the active and inactive calls. For most assays here, no stated cut-off is given here; in the data, actives have a measured EC50 and inactives only a lower limit.

Tests used:
[1] = target: T1, Replicative DNA helicase DnaB (Mycobacterium tuberculosis, UniProt P9WMR3); assay: DnaB intein splicing inhibitors, dose response, biochemical, cell-free fluorescence (AID 449749); type: functional
T1 sequence (P9WMR3 whole entry): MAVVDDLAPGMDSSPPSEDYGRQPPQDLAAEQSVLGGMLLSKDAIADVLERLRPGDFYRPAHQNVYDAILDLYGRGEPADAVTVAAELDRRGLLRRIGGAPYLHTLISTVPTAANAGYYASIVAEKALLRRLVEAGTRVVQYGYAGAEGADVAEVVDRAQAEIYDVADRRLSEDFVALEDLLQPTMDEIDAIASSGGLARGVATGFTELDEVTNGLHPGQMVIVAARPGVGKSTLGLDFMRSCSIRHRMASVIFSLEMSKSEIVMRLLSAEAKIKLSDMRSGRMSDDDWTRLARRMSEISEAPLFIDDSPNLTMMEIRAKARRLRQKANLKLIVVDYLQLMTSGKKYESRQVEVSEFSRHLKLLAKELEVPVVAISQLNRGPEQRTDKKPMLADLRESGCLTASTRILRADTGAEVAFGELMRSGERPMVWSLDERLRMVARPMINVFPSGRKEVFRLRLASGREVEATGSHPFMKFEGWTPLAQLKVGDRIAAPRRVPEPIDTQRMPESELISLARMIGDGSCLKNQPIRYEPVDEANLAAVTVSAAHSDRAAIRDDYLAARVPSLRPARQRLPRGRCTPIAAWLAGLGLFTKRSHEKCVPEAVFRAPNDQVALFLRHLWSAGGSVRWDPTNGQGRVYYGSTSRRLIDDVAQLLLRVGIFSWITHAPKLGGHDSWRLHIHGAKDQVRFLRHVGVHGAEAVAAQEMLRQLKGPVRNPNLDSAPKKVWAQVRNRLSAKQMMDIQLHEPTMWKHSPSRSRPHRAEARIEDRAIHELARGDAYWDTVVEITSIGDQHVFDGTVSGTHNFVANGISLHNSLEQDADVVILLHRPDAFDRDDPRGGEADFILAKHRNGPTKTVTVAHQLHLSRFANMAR

[2] = target: T2, Protein RecA (Mycobacterium tuberculosis, UniProt P9WHJ3); assay: Fluorescence Cell-Free Homogeneous Dose Retest to Identify Inhibitors of RecA-Intein Splicing Activity. [Related pubchem assays (depositor defined):AID2097, AID2223, AID489010, AID492950]; type: functional
T2 sequence (P9WHJ3 whole entry): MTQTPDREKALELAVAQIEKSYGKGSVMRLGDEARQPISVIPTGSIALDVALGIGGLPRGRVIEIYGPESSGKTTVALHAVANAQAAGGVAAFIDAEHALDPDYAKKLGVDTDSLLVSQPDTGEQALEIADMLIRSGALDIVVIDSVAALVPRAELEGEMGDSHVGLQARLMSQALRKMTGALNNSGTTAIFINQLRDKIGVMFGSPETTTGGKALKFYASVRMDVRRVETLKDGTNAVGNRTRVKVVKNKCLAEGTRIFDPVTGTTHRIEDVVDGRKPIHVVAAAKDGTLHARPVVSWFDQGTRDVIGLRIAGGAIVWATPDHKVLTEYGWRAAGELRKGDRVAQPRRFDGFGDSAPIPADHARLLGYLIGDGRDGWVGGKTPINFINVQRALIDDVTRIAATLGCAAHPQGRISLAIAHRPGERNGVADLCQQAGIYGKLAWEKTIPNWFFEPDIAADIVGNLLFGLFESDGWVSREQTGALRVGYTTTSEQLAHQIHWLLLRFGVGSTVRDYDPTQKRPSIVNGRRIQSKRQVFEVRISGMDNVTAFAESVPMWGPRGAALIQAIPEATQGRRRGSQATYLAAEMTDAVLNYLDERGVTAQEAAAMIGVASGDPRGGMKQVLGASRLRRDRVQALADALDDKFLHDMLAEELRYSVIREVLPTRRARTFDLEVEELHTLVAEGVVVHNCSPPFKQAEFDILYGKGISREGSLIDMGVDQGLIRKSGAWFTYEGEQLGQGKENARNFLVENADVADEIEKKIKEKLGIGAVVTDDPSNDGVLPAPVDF

[3] = target: T3, Heat shock factor protein 1 (Mus musculus, UniProt P38532); assay: enhancement of HSF1-driven luciferase signal – cell-based, NIH3T3, luminescence, dose retest, confirmation (AID 435004); type: functional;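 further: stress induced by proteasome inhibitor MG132 added 30 min after compound; luciferase reporter driven by HSF1 response element in NIH3T3 cells; actives raise luminescence as potentiators of the MG132 stress response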
T3 sequence (P38532 whole entry): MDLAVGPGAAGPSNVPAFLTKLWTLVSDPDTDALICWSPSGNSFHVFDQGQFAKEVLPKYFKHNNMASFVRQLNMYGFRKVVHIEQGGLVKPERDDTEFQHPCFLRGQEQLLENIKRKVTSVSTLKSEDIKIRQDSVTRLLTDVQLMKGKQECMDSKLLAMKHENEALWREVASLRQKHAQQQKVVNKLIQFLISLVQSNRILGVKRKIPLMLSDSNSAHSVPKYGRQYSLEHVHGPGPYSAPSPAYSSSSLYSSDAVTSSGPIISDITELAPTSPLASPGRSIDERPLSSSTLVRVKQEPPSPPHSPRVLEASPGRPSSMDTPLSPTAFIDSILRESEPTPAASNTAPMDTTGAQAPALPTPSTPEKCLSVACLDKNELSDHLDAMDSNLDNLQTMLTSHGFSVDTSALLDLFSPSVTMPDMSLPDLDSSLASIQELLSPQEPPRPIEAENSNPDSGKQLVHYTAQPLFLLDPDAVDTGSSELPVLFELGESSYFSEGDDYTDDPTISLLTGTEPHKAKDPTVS

[4] = tested on: INS1; assay: INS-1E survival protection against cytokine death – cell-based, luminescence, retest, dose response (AID 449756); type: functional; settings: Rattus norvegicus;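 further: cell death triggered by IL-1 beta plus TNF-alpha plus IFN-gamma mixture; protective hits raise ATP signal compared with cytokine alone wells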
[5] = target: T4, Corticotropin-releasing factor receptor 2/Corticotropin-releasing factor-binding protein (Homo sapiens, UniProt P24387+Q13324); assay: Dose Response confirmation of uHTS hits for small molecule antagonists of the CRF-binding protein and CRF-R2 receptor complex.; type: functional; settings: read-out: IC50_Mean
T4 sequence (Q13324 whole entry): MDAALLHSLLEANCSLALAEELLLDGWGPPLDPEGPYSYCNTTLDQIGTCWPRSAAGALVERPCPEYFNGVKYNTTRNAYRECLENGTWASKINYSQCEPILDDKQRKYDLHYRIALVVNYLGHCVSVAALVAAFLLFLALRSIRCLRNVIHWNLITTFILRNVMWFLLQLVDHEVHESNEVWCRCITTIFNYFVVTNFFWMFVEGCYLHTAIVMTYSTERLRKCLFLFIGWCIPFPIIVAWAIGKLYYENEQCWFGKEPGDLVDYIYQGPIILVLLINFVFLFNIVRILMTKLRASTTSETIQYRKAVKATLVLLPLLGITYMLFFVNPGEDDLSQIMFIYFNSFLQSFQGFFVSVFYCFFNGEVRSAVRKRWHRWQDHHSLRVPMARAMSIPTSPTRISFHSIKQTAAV
T4 sequence (P24387 whole entry): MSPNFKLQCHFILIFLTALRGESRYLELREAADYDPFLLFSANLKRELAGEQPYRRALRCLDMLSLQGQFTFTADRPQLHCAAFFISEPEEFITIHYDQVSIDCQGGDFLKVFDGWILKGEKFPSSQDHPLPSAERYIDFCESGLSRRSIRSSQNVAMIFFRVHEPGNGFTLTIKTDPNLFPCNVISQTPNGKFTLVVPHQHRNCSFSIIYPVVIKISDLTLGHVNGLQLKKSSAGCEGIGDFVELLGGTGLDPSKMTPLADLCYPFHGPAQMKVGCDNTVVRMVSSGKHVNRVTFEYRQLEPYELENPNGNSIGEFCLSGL

[6] = target: T4, Corticotropin-releasing factor receptor 2/Corticotropin-releasing factor-binding protein; assay: activators of CRF receptor 2 with binding protein – uHTS hits, confirmation (AID 602473); type: functional; settings: read-out: EC50_Mean
[7] = tested on: Streptococcus sp. 'group A'; assay: Streptococcus pyogenes SK(-)GAS viability under kanamycin – luminescence, BacTiterGlo, confirmation, counter-screen for streptokinase expression inhibitor project, dose response (AID 1900); type: functional, organism-based
[8] = tested on: Streptococcus; assay: GAS UMAA2166 growth inhibition – luminescence, BacTiterGlo, counter-screen for streptokinase expression inhibitor project, dose response (AID 1915); type: functional, organism-based;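 further: potency for reduction of bacterial viability or growth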
[9] = Trypanosoma cruzi growth suppression in host cells – NIH3T3 host cells, beta-gal luminescence, confirmation (AID 2044); type: functional, cell-based;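 further: intracellular parasites grown in NIH/3T3 mouse fibroblasts as host cells; luminescent beta-galactosidase reporter signal from transgenic T. cruzi replicating inside host cells; inhibitors lower the luminescence signal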
[10] = NIH3T3 cell viability loss – ATP luminescence, mouse fibroblasts, counter-screen, dose response (AID 2010); type: functional, cell-based;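 further: cells exposed to compound for about 90 hours before reading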

| Structure (SMILES) | AC50 [1] | EC50 [2] | EC50 [3] | further results |
| --- | --- | --- | --- | --- |
| Cn1cnc([N+](=O)[O-])c1Sc1nnc(-c2cccnc2)n1C | 38.1 µM (active) | 13.3 µM (active) |  |  |
| O=C(O)c1ccc(N(Cc2ccccc2)S(=O)(=O)c2ccccc2)cc1 |  |  | > 260 µM (inactive) |  |
| COc1ccc(CN(C)C(=O)c2ccc(NS(=O)(=O)c3ccc(F)cc3)cc2)c(OC)c1OC |  |  |  | AC50 [4]: > 260 µM (inactive) |
| O=c1oc(CCO)cc2ccc(Br)cc12 |  |  |  | IC50 [5]: > 47.1 µM (inactive); EC50 [6]: > 53 µM (inactive) |
| COC(=O)Nc1ccc(S(=O)(=O)N2CCC(C(=O)N3CCCC(C)C3)CC2)cc1 (configuration not stated) |  |  | > 260 µM (inactive) |  |
| O=C(Nc1cc([N+](=O)[O-])ccc1O)c1cccc(NC(=O)c2ccco2)c1 |  |  |  | EC50 [7]: 5.58 µM (active); EC50 [8]: 6.8 µM (active) |
| CCC1=Nc2cc(C(=O)NCCN3CCCC3)ccc2Sc2ccccc21 | > 380 µM (inactive) | > 380 µM (inactive) |  |  |
| O=c1c2cc(N3CCOCC3)ccc2[nH]c(=S)n1Cc1ccccn1 |  |  | > 260 µM (inactive) |  |
| Nc1ccc2nc(N3CCOCC3)sc2c1 | 93.7 µM (active) | 23.7 µM (active) |  | EC50 [9]: 1.96 µM (active); EC50 [10]: 5.16 µM (active) |
| Cc1cc2[nH]ncc2cc1NC(=S)NC(=O)c1ccccc1 | 178 µM (active) | > 380 µM (inactive) |  |  |
| NCCCCCc1nnc(SC/C=C/c2ccccc2)o1 |  |  | > 260 µM (inactive) |  |
| COc1ccc(C(CC(=O)O)c2ccc3c(c2)OCO3)cc1 (configuration not stated) |  |  |  | IC50 [5]: > 47.1 µM (inactive); EC50 [6]: > 53 µM (inactive) |
| COc1ccc(CCNc2oc(-c3ccccc3OC)nc2C#N)cc1 |  |  | > 260 µM (inactive) |  |
| COc1ccc(Cl)cc1NC(=O)c1ccoc1C |  |  |  | IC50 [5]: > 47.1 µM (inactive); EC50 [6]: > 53 µM (inactive) |
| O=c1c2ccccc2nc2n1CCS2(=O)=O | 37.2 µM (active) | 12.9 µM (active) |  |  |
| CC1=NNC(=O)C1C(c1ccc(F)cc1)C(C#N)C#N (configuration not stated) | 7.09 µM (active) | 2.83 µM (active) |  |  |
| COc1cc(/C=C/C(=O)OCc2c(C)noc2C)ccc1OC(F)F |  |  | > 260 µM (inactive) |  |
| Fc1ccc(C2NC(S)=NC3=C2N2CCC3CC2)cc1 (configuration not stated) |  |  | > 260 µM (inactive) |  |
| CC(C)c1n[nH]c2c1C(Cc1ccccc1)C(C#N)=C(N)O2 (configuration not stated) | 38.7 µM (active) | 8.67 µM (active) |  |  |
